Experimental findings from patent US20230357269A1 (LES LABORATOIRES SERVIER, priority 2020, published 2023) are described below.

Each structure is given as a SMILES string. Bounds are passed on as bounds.

Sequence of human recombinant LRRK2 protein (Q5S007 whole entry): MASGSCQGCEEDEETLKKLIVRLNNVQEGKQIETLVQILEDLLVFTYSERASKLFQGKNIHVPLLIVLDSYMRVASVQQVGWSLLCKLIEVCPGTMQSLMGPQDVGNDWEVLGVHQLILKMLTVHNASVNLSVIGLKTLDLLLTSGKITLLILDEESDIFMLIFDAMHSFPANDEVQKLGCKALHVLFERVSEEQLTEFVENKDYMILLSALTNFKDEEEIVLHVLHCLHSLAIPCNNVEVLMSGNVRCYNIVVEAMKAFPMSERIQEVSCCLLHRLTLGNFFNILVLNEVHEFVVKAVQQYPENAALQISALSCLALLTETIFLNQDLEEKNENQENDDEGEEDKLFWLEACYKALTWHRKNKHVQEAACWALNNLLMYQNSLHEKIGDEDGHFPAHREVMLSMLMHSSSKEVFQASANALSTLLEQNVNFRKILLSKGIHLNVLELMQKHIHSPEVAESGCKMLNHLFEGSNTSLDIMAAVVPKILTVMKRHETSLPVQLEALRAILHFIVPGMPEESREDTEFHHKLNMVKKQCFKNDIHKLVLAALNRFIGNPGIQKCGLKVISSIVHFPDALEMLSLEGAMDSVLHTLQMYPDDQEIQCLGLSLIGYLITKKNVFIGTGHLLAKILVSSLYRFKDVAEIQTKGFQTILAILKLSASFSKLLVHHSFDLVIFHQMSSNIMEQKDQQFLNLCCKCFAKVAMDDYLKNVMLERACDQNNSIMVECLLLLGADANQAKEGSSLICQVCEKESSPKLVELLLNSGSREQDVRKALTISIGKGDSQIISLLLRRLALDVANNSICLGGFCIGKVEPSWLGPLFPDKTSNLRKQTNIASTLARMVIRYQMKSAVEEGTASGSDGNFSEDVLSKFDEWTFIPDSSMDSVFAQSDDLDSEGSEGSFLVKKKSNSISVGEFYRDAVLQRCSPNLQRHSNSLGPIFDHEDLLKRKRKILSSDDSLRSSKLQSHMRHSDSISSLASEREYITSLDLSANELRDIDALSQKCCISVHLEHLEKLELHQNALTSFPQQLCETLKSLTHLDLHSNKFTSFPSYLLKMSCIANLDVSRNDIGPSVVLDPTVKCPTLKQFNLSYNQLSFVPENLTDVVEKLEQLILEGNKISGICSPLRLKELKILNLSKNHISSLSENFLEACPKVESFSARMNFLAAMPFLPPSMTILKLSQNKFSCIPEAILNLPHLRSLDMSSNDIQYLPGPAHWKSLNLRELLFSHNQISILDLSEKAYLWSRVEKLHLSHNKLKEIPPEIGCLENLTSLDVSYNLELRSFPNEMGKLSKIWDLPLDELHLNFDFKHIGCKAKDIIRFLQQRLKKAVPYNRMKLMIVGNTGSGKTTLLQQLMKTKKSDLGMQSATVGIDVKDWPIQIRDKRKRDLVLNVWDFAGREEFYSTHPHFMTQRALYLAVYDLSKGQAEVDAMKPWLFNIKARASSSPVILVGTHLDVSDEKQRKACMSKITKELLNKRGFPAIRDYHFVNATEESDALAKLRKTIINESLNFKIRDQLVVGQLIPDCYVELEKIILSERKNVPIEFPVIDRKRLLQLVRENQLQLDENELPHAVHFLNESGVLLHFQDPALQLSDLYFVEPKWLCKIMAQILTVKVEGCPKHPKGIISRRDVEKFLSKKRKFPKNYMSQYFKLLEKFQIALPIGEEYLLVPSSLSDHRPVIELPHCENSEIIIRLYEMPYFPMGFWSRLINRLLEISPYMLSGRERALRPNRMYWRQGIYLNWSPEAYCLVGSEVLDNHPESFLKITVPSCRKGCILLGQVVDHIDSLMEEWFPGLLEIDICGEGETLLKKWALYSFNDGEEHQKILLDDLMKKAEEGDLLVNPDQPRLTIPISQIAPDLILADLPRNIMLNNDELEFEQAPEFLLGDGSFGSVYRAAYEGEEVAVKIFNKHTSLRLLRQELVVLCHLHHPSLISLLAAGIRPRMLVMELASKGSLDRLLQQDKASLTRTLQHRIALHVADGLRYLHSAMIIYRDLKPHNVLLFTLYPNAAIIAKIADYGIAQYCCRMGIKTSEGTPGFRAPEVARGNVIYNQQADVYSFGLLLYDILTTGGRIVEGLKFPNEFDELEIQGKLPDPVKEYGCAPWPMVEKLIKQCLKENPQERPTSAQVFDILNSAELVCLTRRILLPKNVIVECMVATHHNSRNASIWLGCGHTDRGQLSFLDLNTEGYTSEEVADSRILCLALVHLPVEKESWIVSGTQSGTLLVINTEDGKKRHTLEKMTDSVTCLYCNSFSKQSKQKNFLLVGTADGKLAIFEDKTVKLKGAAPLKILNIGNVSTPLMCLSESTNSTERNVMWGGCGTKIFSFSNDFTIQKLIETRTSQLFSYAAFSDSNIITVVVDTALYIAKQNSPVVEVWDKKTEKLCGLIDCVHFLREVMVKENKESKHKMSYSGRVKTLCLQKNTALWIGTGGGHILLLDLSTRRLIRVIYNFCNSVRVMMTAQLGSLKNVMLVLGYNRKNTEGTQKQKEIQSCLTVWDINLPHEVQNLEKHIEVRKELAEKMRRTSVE

The target of this test is human recombinant LRRK2 protein (Homo sapiens (Human), UniProt Q5S007). The experiment in a line: LRRK2 Kinase Activity Assay (ADP-Glo). The test is classed as biochemical. To be noted: LRRK2 wt; LRRKtide peptide and ATP substrates; 1h-incubation at 37° C. As for the experimental part:
LRRK2 Kinase reactions were carried out in 384-well white polystyrene plates in a final volume of 6 μl using ADP-Glo™ Kinase Assay kit (Promega Corp.). Compound and substrates (LRRKtide peptide and ATP) in assay buffer were first dispensed in wells. Kinase reaction was then started by the addition of human recombinant LRRK2 protein. After 1h-incubation at 37° C., the enzymatic reaction was stopped by the addition of 6 μl of ADP-Glo Reagent-1 and an additional 40-minutes incubation at 23° C. (residual ATP depletion). A final 30-minutes incubation after 12 μL reagent-2 addition (ADP to ATP conversion and luciferin/luciferase reaction) was performed before luminescent signal acquisition (EnVision™ multimode plate reader-PerkinElmer, Inc.). Data from 10 individual concentrations of tested compounds (N=2) were fitted (XLfit™-ID Business Solutions Ltd) to deliver IC50s (compound concentration leading to 50% inhibition of reference enzymatic activity).
The compounds are dissolved to 5 mM in DMSO. When needed, solutions are sonicated in a bath sonicator.
Table 2 provides the IC50 values of the compounds according to the invention, obtained using the above-mentioned kinase assay. Activities are represented as +++, ++ and +, having the following meanings: • +++ means IC50<10 nM • ++ means 10 nM≤IC50<100 nM • + means 100 nM≤IC50<1 μM.
(In general: In ADP-Glo the light output rises with the ADP produced.)
Turning to `O=C1NCCCOc2ccc3[nH]nc(c3c2)-c2cncc(c2)CO1` [Example 1, 8,14-dioxa-4,10,19,20-tetraazatetracyclo[13.5.2.1^2,6.0^18,21]tricosa-1(20),2,4, 6(23),15,17,21-heptaen-9-one], the half-inhibitory concentration (IC50) is less than 0.01 µM. Consider `CCC1OC(=O)NCCCOc2ccc3[nH]nc(c3c2)-c2cccc1c2` (single isomer, unassigned) [Example 116, (7R)- or (7S)-7-ethyl-8,14-dioxa-10,19,20-triazatetracyclo[13.5.2.1^2,6.0^18,21]tricosa-1(20),2,4,6(23),15,17,21-heptaen-9-one], for which the half-inhibitory concentration (IC50) is less than 0.01 µM.

Consider `O=C1NCCCOc2ccc3[nH]nc(c3c2)-c2cccc(c2)CO1` [Example 5, 8,14-dioxa-10,19,20-triazatetracyclo[13.5.2.1^2,6.0^18,21]tricosa-1(20),2,4,6(23), 15,17,21-heptaen-9-one], for which the IC50 was less than 0.01 µM. The value for `CCC1CCOc2ccc3[nH]nc(c3c2)-c2cccc(c2)COC(=O)N1` (stereo not shown) [Example 87, 11-ethyl-8,14-dioxa-10,19,20-triazatetracyclo[13.5.2.1^2,6.0^18,21]tricosa-1(20),2(23),3,5,15(22),16,18(21)-heptaen-9-one] was less than 0.01 µM. `O=C1NCCCOc2ccc3[nH]nc(c3c2)-c2cc(cc(N3CCN(C4COC4)CC3)c2)CO1` [Example 15, 4-[4-(oxetan-3-yl)piperazin-1-yl]-8,14-dioxa-10,19,20-triazatetracyclo[13.5.2.1^2,6.0^18,21]tricosa-1(20),2,4,6(23),15,17,21-heptaen-9-one]: the IC50 was less than 0.01 µM. For `O=C1NCCCOc2ccc3[nH]nc(c3c2)-c2csc(n2)CCO1` [Example 134, 8,14-dioxa-4-thia-10,19,20,23-tetraazatetracyclo[13.5.2.1^2,5.0^18,21]tricosa-1(20),2,5(23),15,17,21-hexaen-9-one] the value was less than 0.01 µM; for `O=C1NCCCOc2ccc3[nH]nc(c3c2)-c2ccc(N3CCCC3=O)c(c2)CO1` [Example 75, 5-(2-oxopyrrolidin-1-yl)-8,14-dioxa-10,19,20-triazatetracyclo[13.5.2. 1^2,6.0^18,21]tricosa-1(20),2(23),3,5,15(22),16,18(21)-heptaen-9-one], less than 0.01 µM; for `O=C1NCCCOc2ccc3[nH]nc(c3c2)-c2ccn(n2)CCO1` [Example 84, 8,14-dioxa-5,10,19,20,23-pentaazatetracyclo[13.5.2.1^2,5.0^18,21]tricosa-1(20),2(23),3,15(22),16,18(21)-hexaen-9-one], 0.01 to 0.1 µM. The value for `CC(C)C1COC(=O)NCCCOc2ccc3[nH]nc(c3c2)-c2cnn1c2` (stereo not shown) [Example 112, 6-(propan-2-yl)-8,14-dioxa-4,5,10,19,20-pentaazatetracyclo[13.5.2.1^2,5.0^18,21]tricosa-1(20),2(23),3,15(22),16,18(21)-hexaen-9-one] was 0.01 to 0.1 µM.

Take `CC1OC(=O)NCCCOc2ccc3[nH]nc(c3c2)-c2cccc1n2` (stereo not shown) [Example 111, 7-methyl-8,14-dioxa-10,19,20,23-tetraazatetracyclo[13.5.2.1^2,6.0^18,21]tricosa-1(20),2,4,6(23),15,17,21-heptaen-9-one]: the 50% inhibitory concentration (IC50) lay within 0.01 to 0.1 µM.

Take `Cc1c(F)cc2cc1C(C)OC(=O)NCCCOc1ccc3[nH]nc-2c3c1` (stereo not shown) [Example 88, 4-fluoro-5,7-dimethyl-8,14-dioxa-10,19,20-triazatetracyclo[13.5.2.1^2,6.0^18,21]tricosa-1(20),2(23),3,5,15(22),16,18(21)-heptaen-9-one]: the half-inhibitory concentration (IC50) lay in the range of 0.01 to 0.1 µM. The value for `C[C@@H]1CCNC(=O)OCc2cc(ccn2)-c2n[nH]c3ccc(cc23)O1` [Example 117, (13R)-13-methyl-8,14-dioxa-5,10,19,20-tetraazatetracyclo[13.5.2.1^2,6.0^18,21]tricosa-1(20),2,4,6(23),15,17,21-heptaen-9-one] was less than 0.01 µM; that for `O=C1NCCCOc2ccc3[nH]nc(c3c2)-c2ccc(C3CC3)c(c2)CO1` [Example 69, 5-cyclopropyl-8,14-dioxa-10,19,20-triazatetracyclo[13.5.2.1^2,6.0^18,21]tricosa-1(20),2,4,6(23),15,17,21-heptaen-9-one] was less than 0.01 µM; that for `COCCN(C)c1cc2cc(c1)-c1n[nH]c3ccc(cc13)OCCCNC(=O)OC2` [Example 26, 4-[(2-methoxyethyl)(methyl)amino]-8,14-dioxa-10,19,20-triazatetracyclo[13.5.2.1^2,6.0^18,21]tricosa-1(20),2,4,6(23),15,17,21-heptaen-9-one] was less than 0.01 µM. The value for `CC1CCOc2ccc3[nH]nc(c3c2)-c2cccc(c2)COC(=O)N1` (stereo not shown) [Example 72, 11-methyl-8,14-dioxa-10,19,20-triazatetracyclo[13.5.2.1^2,6.0^18,21]tricosa-1(20),2,4,6(23),15,17,21-heptaen-9-one] was less than 0.01 µM; that for `O=C1NCCCOc2ccc3[nH]nc(c3c2)-c2csc(n2)CO1` [Example 147, 7,13-dioxa-4-thia-9,18,19,22-tetraazatetracyclo[12.5.2.1^2,5.0^17,20]docosa-1(19),2,5(22),14(21),15,17(20)-hexaen-8-one] was less than 0.01 µM. Turning to `CC1OC(=O)NCC[C@@H](C)Oc2ccc3[nH]nc(c3c2)-c2ccnc1n2` (single isomer, unassigned) [Example 130, (7R,13R)- or (7S,13R)-7,13-dimethyl-8,14-dioxa-5,10,19,20,23-penta azatetracyclo[13.5.2.1^2,6.0^18,21]tricosa-1(20),2,4,6(23),15,17,21-heptaen-9-one], the half-inhibitory concentration (IC50) is 0.01 to 0.1 µM. Consider `C[C@@H]1CCNC(=O)OCCn2cc(cc2C#N)-c2n[nH]c3ccc(cc23)O1` [Example 151, (13R)-13-methyl-9-oxo-8,14-dioxa-5,10,19,20-tetraazatetracyclo[13.5.2. 1^2,5.0^18,21]tricosa-1(20),2(23),3,15(22),16,18(21)-hexaene-4-carbonitrile], for which the IC50 was less than 0.01 µM. For `C[C@@H]1CCNC(=O)OCc2cc(Cl)cc(n2)-c2n[nH]c3ccc(cc23)O1` [Example 125, (13R)-4-chloro-13-methyl-8,14-dioxa-10,19,20,23-tetraazatetracyclo[13.5.2.1^2,6.0^18,21]tricosa-1(20),2(23),3,5,15(22),16,18(21)-heptaen-9-one], the IC50 is less than 0.01 µM. The value for `Cc1c(F)cc2cc1COC(=O)NCCCOc1ccc3[nH]nc-2c3c1` [Example 28, 4-fluoro-5-methyl-8,14-dioxa-10,19,20-triazatetracyclo[13.5.2.1^2,6.0^18,21]tricosa-1(20),2,4,6(23),15,17,21-heptaen-9-one] was less than 0.01 µM; that for `O=C1NCCCOc2ccc3[nH]nc(c3c2)-c2cc(cc(CN3CCCC3)c2)CO1` [Example 42, 4-[(pyrrolidin-1-yl)methyl]-8,14-dioxa-10,19,20-triazatetracyclo[13.5.2.1^2,6.0^18,21]tricosa-1(20),2,4,6(23),15,17,21-heptaen-9-one] was less than 0.01 µM.

For the molecule `CC(C)Oc1cc2cc(c1)-c1n[nH]c3ccc(cc13)OCCCNC(=O)OC2` [Example 55, 4-(propan-2-yloxy)-8,14-dioxa-10,19,20-triazatetracyclo[13.5.2.1^2,6.0^18,21]tricosa-1(20),2,4,6(23),15,17,21-heptaen-9-one], the half-maximal inhibitory concentration (IC50) was less than 0.01 µM. The value for `C[C@@H]1CCNC(=O)OCCn2cc(cn2)-c2n[nH]c3ccc(cc23)O1` [Example 97, (13R)-13-methyl-8,14-dioxa-4,5,10,19,20-pentaazatetracyclo[13.5.2.1^2,5.0^18,21]tricosa-1(20),2(23),3,15,17,21-hexaen-9-one] was less than 0.01 µM. For `O=C1NCCCOc2ccc3[nH]nc(c3c2)-c2ccc(N3CCOCC3)c(c2)CO1` [Example 45, 5-(morpholin-4-yl)-8,14-dioxa-10,19,20-triazatetracyclo[13.5.2.1^2,6.0^18,21]tricosa-1(20),2,4,6(23),15,17,21-heptaen-9-one] the value was less than 0.01 µM; for `O=C1NCCCOc2ccc3[nH]nc(c3c2)-c2cc(cc(C3=CCN(C4COC4)CC3)c2)CO1` [Example 57, 4-[1-(oxetan-3-yl)-1,2,3,6-tetrahydropyridin-4-yl]-8,14-dioxa-10,19,20-triazatetracyclo[13.5.2.1^2,6.0^18,21]tricosa-1(20),2,4,6(23),15,17,21-heptaen-9-one], less than 0.01 µM.

On to `Cn1ccc(-c2cc3cc(c2)-c2n[nH]c4ccc(cc24)OCCCNC(=O)OC3)n1` [Example 64, 4-(1-methyl-1H-pyrazol-3-yl)-8,14-dioxa-10,19,20-triazatetracyclo[13.5.2.1^2,6.0^18,21]tricosa-1(20),2(23),3,5,15(22),16,18(21)-heptaen-9-one], for which the 50% inhibitory concentration (IC50) is less than 0.01 µM. For `C[C@@H]1CCNC(=O)OCc2cccc(c2F)-c2n[nH]c3ccc(cc23)O1` [Example 120, (13R)-23-fluoro-13-methyl-8,14-dioxa-10,19,20-triazatetracyclo[13.5.2.1^2,6.0^18,21]tricosa-1(20),2,4,6(23),15,17,21-heptaen-9-one] the value was 0.1 to 1 µM.

As for `Cc1cc2nc(n1)COC(=O)NCC[C@@H](C)Oc1ccc3[nH]nc-2c3c1` [Example 148, (13R)-4,13-dimethyl-8,14-dioxa-5,10,19,20,23-pentaazatetracyclo[13.5.2. 1^2,6.0^18,21]tricosa-1(20),2(23),3,5,15(22),16,18(21)-heptaen-9-one], the IC50 is less than 0.01 µM.

By IC50 is commonly meant the concentration that inhibits the measured activity by half.
